Results taken from patent US7022709B2, “Selective PDE 2 inhibitors as pharmaceuticals for improving perception” (priority 2000, dated 2006).
Read-outs that look alike come from different tables or passages of the source.

What was measured:
PDE1 = assay: PDE inhibition, PDE1 (Ca-calmodulin-dependent); type: biochemical; settings: bovine PDE1
Text: (§1) The PDE 2 which can be stimulated by cGMP is isolated from bovine myocardium. The PDE 1 which can be stimulated by Ca^2+ calmodulin is isolated from porcine aorta, porcine brain or, preferably, from bovine aorta. The cGMP-specific PDE 5 is obtained from porcine small intestine, porcine aorta, human blood platelets and, preferably, from bovine aorta. Purification takes place by anion exchange chromatography on MonoQ^R Pharmacia essential by the method of Hoey, M; Houslay, M. D., Biochem. Pharmacol. 1990, 40, 193–202 and Lugman et al. Biochem. Pharmacol. 1986, 35, 1743–1751.
(§2) The enzymatic activity is determined in an assay mixture of 100 μl in 20 mM Tris/HCl buffer pH 7.5 which contains 5 mM MgCl2, 0.1 mg/ml bovine serum albumin and 800 Bq of either [^3H]-cAMP or [^3H]-cGMP. […] 100 μl of the reaction mixture are separated by HPLC, and the cleavage products are determined quantitatively on line using a flow scintillation counter. The substance concentration at which the reaction rate is reduced by 50% is measured. […]
(§3) The activity of the test substances on human recombinant PDE2, PDE3B, PDE4B and PDE7B is determined using the [^3H]cAMP scintillation proximity assay (SPA) kit (TRKQ7090) from Amersham International (Little Chalfont, England) and on PDE1 and PDE5 using the [^3H]cGMP scintillation proximity assay (SPA) kit (TRKQ7100) from Amersham International (Little Chalfont, England). […]

PDE2 [1] = biological target: T1, PDE2 (Bos taurus, UniProt P14099); assay: PDE inhibition, cGMP-stimulated PDE2 from bovine myocardium; type: biochemical
T1 construct: from tissue; host or cells: bovine myocardium
T1 sequence (P14099 1-921): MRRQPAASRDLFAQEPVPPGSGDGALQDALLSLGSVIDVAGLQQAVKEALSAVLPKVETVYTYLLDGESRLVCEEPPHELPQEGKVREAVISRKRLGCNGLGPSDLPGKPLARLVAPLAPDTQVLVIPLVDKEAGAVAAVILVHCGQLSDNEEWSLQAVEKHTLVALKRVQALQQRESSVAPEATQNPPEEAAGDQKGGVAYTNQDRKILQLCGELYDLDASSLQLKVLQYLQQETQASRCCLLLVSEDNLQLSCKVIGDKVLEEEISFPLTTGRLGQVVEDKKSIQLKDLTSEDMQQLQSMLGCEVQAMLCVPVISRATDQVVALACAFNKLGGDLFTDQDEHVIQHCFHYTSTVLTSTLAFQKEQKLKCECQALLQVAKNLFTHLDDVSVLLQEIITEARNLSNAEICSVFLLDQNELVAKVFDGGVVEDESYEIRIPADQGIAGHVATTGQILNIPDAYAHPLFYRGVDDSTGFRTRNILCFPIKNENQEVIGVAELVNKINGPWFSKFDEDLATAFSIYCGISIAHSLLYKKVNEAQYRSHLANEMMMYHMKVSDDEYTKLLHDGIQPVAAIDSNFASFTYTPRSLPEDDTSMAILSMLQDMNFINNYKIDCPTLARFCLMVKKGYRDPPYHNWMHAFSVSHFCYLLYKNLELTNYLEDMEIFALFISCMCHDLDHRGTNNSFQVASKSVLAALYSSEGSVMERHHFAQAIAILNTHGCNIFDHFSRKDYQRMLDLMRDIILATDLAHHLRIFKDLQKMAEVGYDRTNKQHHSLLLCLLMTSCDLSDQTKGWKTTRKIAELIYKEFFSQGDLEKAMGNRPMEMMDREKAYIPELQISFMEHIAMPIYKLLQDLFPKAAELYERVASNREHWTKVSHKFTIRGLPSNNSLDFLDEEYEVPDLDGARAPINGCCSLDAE
Text: as §1
as §2, with “[^3H]-cGMP. The final concentration of the respective nucleotides is 10^−6 mol/l.” for “[^3H]-cGMP.”
(§4) Test substances are dissolved in 100% DMSO (10 mM), and this solution is diluted further with H2O (maximum final concentration in the assay: 10 μM). […] After the beads have settled out (about 15 min), the plate is measured in a beta counter.

PDE3B = biological target: T2, PDE3B (Homo sapiens, UniProt Q13370); assay: PDE inhibition, human recombinant PDE3B, [3H]cAMP SPA; type: biochemical
T2 construct: made in house; host or cells: Sf9 cells, pFASTBAC baculovirus expression system (Gibco BRL)
T2 sequence (Q13370 whole entry): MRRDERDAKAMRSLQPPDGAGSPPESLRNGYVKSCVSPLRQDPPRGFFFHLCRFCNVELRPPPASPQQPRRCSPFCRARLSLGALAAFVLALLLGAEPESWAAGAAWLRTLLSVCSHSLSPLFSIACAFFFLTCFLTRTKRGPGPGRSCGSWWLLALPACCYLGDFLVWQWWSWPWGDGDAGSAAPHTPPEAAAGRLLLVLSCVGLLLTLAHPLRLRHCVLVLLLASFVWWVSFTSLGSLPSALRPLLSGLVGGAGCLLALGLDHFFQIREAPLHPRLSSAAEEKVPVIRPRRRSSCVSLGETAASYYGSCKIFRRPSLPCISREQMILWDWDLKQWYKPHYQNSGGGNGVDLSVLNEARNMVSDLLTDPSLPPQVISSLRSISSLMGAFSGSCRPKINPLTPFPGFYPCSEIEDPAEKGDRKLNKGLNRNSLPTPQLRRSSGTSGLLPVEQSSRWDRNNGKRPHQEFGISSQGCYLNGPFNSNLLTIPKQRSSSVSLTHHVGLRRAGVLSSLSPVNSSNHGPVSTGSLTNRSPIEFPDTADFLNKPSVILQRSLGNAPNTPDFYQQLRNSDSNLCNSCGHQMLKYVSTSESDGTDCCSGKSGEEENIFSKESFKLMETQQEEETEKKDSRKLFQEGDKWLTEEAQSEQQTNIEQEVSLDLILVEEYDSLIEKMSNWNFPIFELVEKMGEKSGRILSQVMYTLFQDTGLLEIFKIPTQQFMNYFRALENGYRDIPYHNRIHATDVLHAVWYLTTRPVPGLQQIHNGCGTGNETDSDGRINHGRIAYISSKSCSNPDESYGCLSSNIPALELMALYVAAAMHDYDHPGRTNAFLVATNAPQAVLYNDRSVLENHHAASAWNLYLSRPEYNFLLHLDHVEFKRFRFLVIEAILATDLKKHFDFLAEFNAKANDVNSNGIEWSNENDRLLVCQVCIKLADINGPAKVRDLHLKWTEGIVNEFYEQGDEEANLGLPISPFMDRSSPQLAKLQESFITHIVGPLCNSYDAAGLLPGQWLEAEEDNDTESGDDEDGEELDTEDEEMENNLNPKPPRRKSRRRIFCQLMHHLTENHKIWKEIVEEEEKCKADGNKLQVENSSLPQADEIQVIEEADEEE
Method: (§5) Human recombinant PDE2 (Rosman et al. Gene 1997 191, 89–95), PDE3B (Miki et al. Genomics 1996 36, 476–485), PDE4B (Bolger et al. Mol. Cell. Biol. 1993 13, 6558–6571) and PDE7B (Hetman et al. Proc. Natl. Acad. Sci. U.S.A. 2000 97, 472–476) are expressed in Sf9 cells with the aid of the pFASTBAC baculovirus expression system (Gibco BRL).
(§6) The activity of the test substances on human recombinant PDE2, PDE3B, PDE4B and PDE7B is determined using the [^3H]cAMP scintillation proximity assay (SPA) kit (TRKQ7090) from Amersham International (Little Chalfont, England) and on PDE1 and PDE5 using the [^3H]cGMP scintillation proximity assay (SPA) kit (TRKQ7100) from Amersham International (Little Chalfont, England).
as §4, with “μM). The PDE2 is prestimulated by adding cGMP (final concentration in the assay: 10^−6 M). The enzyme is diluted in PDE buffer (20 mM TRIS/HCl, 5 mM MgCl2, 0.1 mg/ml albumin, pH 7.5).” for “μM).”
(§7) Calmodulin 10^−7 M and CaCl2 1 μM are added to the reaction mixture for the PDE1 measurement. PDE5 is measured using the [^3H] cGMP SPA assay. PDE3B, PDE4B and PDE7B are measured using the [^3H] cAMP scintillation proximity assay.

PDE4B = biological target: T3, PDE4B (Homo sapiens, UniProt Q07343); assay: PDE inhibition, human recombinant PDE4B, [3H]cAMP SPA; type: biochemical
T3 construct: made in house; host or cells: Sf9 cells, pFASTBAC baculovirus expression system (Gibco BRL)
T3 sequence (Q07343 whole entry): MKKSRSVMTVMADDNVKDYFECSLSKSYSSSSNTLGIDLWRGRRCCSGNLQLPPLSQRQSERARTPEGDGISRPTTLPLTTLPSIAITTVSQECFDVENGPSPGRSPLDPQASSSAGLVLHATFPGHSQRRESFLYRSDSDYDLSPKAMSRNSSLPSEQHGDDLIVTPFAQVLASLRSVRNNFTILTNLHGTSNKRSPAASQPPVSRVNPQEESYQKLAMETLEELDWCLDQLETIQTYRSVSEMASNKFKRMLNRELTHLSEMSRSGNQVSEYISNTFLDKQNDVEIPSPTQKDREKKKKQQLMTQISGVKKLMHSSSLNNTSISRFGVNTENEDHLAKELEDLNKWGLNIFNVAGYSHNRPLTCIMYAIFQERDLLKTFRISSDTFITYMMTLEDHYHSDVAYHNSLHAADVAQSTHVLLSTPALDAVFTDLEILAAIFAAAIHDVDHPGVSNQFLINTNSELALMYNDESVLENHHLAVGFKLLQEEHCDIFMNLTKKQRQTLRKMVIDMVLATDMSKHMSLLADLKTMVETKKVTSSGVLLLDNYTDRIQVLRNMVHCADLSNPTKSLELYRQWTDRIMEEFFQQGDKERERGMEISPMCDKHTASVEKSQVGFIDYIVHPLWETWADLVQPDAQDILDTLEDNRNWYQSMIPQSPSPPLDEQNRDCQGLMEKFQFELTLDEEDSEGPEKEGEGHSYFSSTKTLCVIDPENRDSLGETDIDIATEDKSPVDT
Method: as §5, §6
as §4, with “μM). The PDE2 is prestimulated by adding cGMP (final concentration in the assay: 10^−6 M). The enzyme is diluted in PDE buffer (20 mM TRIS/HCl, 5 mM MgCl2, 0.1 mg/ml albumin, pH 7.5).” for “μM).”
as §7

PDE5 = biological target: T4, PDE5 (Homo sapiens, UniProt O76074); assay: PDE inhibition, PDE5, [3H]cGMP SPA; type: biochemical
T4 construct: from tissue; host or cells: human blood platelets (inferred; b27 also lists porcine small intestine, porcine aorta and, preferably, bovine aorta)
Text: as §1, §2, §3

PDE7B = biological target: T5, PDE7B (Homo sapiens, UniProt Q9NP56); assay: PDE inhibition, human recombinant PDE7B, [3H]cAMP SPA; type: biochemical
T5 construct: made in house; host or cells: Sf9 cells, pFASTBAC baculovirus expression system (Gibco BRL)
T5 sequence (Q9NP56 whole entry): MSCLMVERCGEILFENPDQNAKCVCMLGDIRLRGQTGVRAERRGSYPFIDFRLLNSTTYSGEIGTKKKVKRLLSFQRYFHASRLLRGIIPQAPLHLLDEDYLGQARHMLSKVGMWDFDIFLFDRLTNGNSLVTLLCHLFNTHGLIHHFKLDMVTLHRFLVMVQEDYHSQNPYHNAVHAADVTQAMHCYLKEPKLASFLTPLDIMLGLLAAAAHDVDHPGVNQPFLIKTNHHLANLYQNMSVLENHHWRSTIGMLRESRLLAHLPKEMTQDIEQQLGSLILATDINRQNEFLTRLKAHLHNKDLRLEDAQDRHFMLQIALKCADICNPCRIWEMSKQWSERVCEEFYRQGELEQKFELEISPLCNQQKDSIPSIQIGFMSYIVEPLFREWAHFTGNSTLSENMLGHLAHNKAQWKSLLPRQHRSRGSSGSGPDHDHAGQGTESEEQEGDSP
Method: as §5, §6
as §4, with “μM). The PDE2 is prestimulated by adding cGMP (final concentration in the assay: 10^−6 M). The enzyme is diluted in PDE buffer (20 mM TRIS/HCl, 5 mM MgCl2, 0.1 mg/ml albumin, pH 7.5).” for “μM).”
as §7

[2] = tested on: primary mouse (E18) cortex cultures; assay: Increasing the intracellular neuronal cGMP concentration in cell cultures; type: cell-based; settings: 100 nM Example 1, parallel incubation with 100 µM SNP, 20 min, 37° C., mouse cortical neurons
Method: PDE 2 inhibitors increase the intracellular neronal cGMP concentration after prestimulation of guanylate cyclase with 10^−4 M sodium nitroprusside (SNP) in primary mouse brain cell cultures.
Mouse embryos were decapitated and the heads were transferred into dissection dishes. The scalp and roof of the skull were removed, and the exposed brains were transferred into another Petri dish. Using a binocular microscope and two forceps, the cerebrum (cortex) was isolated and cooled to 4° C. with ice. This dissection and the isolation of the cortical neurons were then carried out in accordance with a standard protocol with the papain dissociation system (Worthington Biochemical Corporation, Lakewood, N.J. 08701, USA) (Huettner et al. J. Neurosci. 1986, 6, 3044–3060.). […] The cells were then lysed with 200 μl lysis buffer (cGMP kit code RPN 226; from Amersham Pharmacia Biotech.) and cGMP concentration was measured as stated by the manufacturer. […]
Cells were treated with […] SNP (0) or with […] SNP and Example 1 (1×10^−8 M; 5×10^−8 M; 1×10^−7 M; 5×10^−7 M; 1×10^−6 M) for 20 min. The intracellular cGMP level was then measured.

rats = assay: Object recognition test; type: in vivo, rat; settings: second run 24 hours later
Method: The object recognition test is a memory test. It measures the ability of rats (and mice) to distinguish between familiar and unfamiliar objects.
The test was carried out as described (Blokland et al. NeuroReport 1998, 9, 4205–4208; Ennaceur, A., Delacour, J., Behav. Brain Res. 1988, 31, 47–59; Ennaceur, A., Meliani, K., Psychopharmacology 1992, 109, 321–330; Prickaerts, et al. Eur. J. Pharmacol. 1997, 337, 125–136).
In a first run, a rat is confronted in an otherwise empty observation arena of relatively large size by two identical objects. The rat will investigate, i.e. sniff round and touch, both objects extensively. In a second run, after an interval of 24 hours, the rat is put in the observation arena again. One of the familiar objects has now been replaced by a new, unfamiliar object. If a rat recognizes the familiar object, it will concentrate on investigating the unfamiliar object. However, after 24 hours, a rat has normally forgotten which object it investigated in the first run, and it will therefore inspect both objects to the same extent. Administration of a substance with a learning- and memory-improving effect will lead to a rat recognizing the object seen in the first run 24 hours previously as familiar. It will investigate the new, unfamiliar object in more detail than the familiar one. This memory ability is expressed in a discrimination index. A discrimination index of zero means that the rat investigates both objects, the old and the new, for equal times; that is to say it has not recognized the old object and reacts to both objects as if they were unfamiliar and new.
The effects of Example 1 on object recognition by rats 24 hours after the first run were investigated. The animals received Tylose alone, or Example 1 in dosages of 0.3, 1.0 or 3.0 mg/kg of body weight suspended in Tylose, orally, immediately following the first run with two identical objects. […] After a washout period of 2 or 3 days, a new dosage of Example 1 was tested in the same rats, until the memory capacity of all the rats had been measured twice with all the dosages. […]

PDE2 [3] = biological target: T6, PDE2 (Homo sapiens, UniProt O00408); assay: PDE inhibition, human recombinant PDE2, [3H]cAMP SPA; type: biochemical; parameters: made in house; host or cells: Sf9 cells, pFASTBAC baculovirus expression system (Gibco BRL)
T6 sequence (O00408 whole entry): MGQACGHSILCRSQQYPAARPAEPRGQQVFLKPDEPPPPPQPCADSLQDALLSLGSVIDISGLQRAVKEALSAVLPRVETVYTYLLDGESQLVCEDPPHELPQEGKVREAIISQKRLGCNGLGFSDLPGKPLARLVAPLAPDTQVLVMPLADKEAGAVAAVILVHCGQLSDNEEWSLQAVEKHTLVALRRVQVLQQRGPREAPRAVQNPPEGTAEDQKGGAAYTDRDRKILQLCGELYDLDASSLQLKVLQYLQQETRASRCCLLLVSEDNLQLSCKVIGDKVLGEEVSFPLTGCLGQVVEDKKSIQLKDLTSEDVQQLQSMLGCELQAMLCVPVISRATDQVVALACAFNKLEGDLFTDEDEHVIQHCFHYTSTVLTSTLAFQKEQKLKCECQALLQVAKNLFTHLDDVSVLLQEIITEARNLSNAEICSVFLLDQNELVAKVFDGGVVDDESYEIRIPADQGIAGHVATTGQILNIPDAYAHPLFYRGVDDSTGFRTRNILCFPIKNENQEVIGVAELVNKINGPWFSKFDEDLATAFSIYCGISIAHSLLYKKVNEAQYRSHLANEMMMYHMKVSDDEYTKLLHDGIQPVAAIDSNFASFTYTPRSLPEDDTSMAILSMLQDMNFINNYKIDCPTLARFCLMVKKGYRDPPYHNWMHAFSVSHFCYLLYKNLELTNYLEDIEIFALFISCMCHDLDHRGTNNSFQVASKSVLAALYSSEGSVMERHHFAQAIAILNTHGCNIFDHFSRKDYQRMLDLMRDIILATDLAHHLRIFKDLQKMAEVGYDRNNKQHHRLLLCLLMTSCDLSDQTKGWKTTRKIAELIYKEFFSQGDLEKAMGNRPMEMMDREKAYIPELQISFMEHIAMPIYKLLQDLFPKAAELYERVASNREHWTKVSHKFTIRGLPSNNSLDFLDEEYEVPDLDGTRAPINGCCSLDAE
Method: as §5, §6
as §4, with “μM). The PDE2 is prestimulated by adding cGMP (final concentration in the assay: 10^−6 M). The enzyme is diluted in PDE buffer (20 mM TRIS/HCl, 5 mM MgCl2, 0.1 mg/ml albumin, pH 7.5).” for “μM).”

PDE2 [4] = biological target: T6, PDE2; settings: cited from earlier work
adenosine deaminase = adenosine deaminase (Homo sapiens, UniProt P00813); settings: read-out: IC50 adenosine deaminase; cited from earlier work
Sequence of adenosine deaminase (P00813 whole entry, species assumed): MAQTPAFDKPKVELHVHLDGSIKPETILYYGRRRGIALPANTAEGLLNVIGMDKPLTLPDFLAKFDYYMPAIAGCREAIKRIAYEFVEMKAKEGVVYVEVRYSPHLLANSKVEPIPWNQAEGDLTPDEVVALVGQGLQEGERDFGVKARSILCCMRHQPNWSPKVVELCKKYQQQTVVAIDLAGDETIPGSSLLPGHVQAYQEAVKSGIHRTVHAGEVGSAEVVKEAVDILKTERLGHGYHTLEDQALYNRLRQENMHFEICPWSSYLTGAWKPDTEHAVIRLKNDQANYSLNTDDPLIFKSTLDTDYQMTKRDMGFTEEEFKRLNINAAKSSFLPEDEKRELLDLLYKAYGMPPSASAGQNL

IC50 (PDE1) [nM] | IC50 (PDE2 [1]) [nM] | IC50 (PDE3B) [nM] | IC50 (PDE4B) [nM] | IC50 (PDE5) [nM] | IC50 (PDE7B) [nM] | IC50 (PDE2 [3]) [nM] | Structure (SMILES) | intracellular cGMP level [2] | memory capacity in the second run compared with control (Tylose alone) (rats; 0.3 mg/kg orally immediately after the first run) | memory capacity in the second run compared with control (Tylose alone) (rats; 1.0 mg/kg orally immediately after the first run) | discrimination index (d2) (rats; 0.3 and 1.0 mg/kg orally) | IC50 (PDE2 [4]) [nM] | IC50 (adenosine deaminase) [nM]
200 | 7 | > 4000 | 2900 | 300 | 1600 | 6 | COc1ccc(Cc2nc3c(c(C)nn3C(CCCc3ccccc3)C(C)O)c(=O)[nH]2)cc1OC (stereo not shown) [Example 1, 6-(3,4-dimethoxybenzyl)-1-[1-(1-hydroxyethyl)-4-phenylbutyl]-3-methyl-1,5-dihydropyrazolo[3,4-d]pyrimidin-4-one] | distinct increase | improved | improved | greater than zero | – | –
– | – | – | – | – | – | – | CCCCCCC(C(C)O)n1cnc2c(N)ncnc21 (stereo not drawn) [EHNA, erythro-9-(2-hydroxy-3-nonyl)adenine] | – | – | – | – | 1000 | 3
